Here are results for three molecules from PMC6851892 (Clinical Pharmacology in Drug Development, 2019).

Series [1] is classed as in vivo, human (healthy subjects). The conditions noted are these: human, plasma, oral.
The conditions of series [2]: cited from earlier work.
Series [3] concerns CYP enzymes or transporters. The conditions noted are these: in vitro; cited from earlier work.
The conditions of series [4]: cited from earlier work. This is another data set of the same source.
For series [5] the following is noted: primary circulating metabolites of ertugliflozin; cited from earlier work.
For series [6] the following is noted: cited from earlier work. The source holds these as a separate data set.
[7] abbreviates: oral radioactive ertugliflozin dose.

The structures appear in SMILES notation.

As to `CCOc1ccc(Cc2cc([C@]34OC[C@](CO)(O3)[C@@H](O)[C@H](O)[C@H]4O)ccc2Cl)cc1` [Ertugliflozin], in series [1], the Tmax is around 1 h and the half-life lay in the range of 11.2 to 13.8 h. Further, the “Unmetabolized drug recovered in urine, % of the administered dose” value in series [2] was 1.5%. Further, in series [2] (dose range of 0.5 to 300 mg), the AUC dose proportionality entry is reported as “increases in a dose‐proportional manner”. Also, the “Median time to maximum plasma concentration (Tmax)” value in series [2] (fed state, oral) was around 2 h. In series [2] (setting [7]), the “Excretion of radioactivity in feces, % of the dose” value is recorded as 40.9% and the “Excretion of radioactivity in urine, % of the dose” value is 50.2%. Moreover, in series [3], the “Inhibition or induction of CYP enzymes or transporters” value is recorded as “do not inhibit or induce CYP enzymes or transporters”. In series [4], the “Biopharmaceutical Classification System class” value was “class 1”.
In the case of `CCOc1ccc(Cc2cc([C@]34OC[C@](CO)(O3)[C@@H](O)[C@H](O[C@@H]3O[C@H](C(=O)O)[C@@H](O)[C@H](O)[C@H]3O)[C@H]4O)ccc2Cl)cc1` [M5c, 3‐O‐β glucuronide], in series [5], the Pharmacological activity entry was “pharmacologically inactive”.
For `N[C@@H](CC(=O)N1CCn2c(nnc2C(F)(F)F)C1)Cc1cc(F)c(F)cc1F` [Sitagliptin], in series [1], the time to peak (Tmax) lay in the range of 2.2 to 4 h and the half-life was in the range of 11.2 to 12.5 h. Also, in series [6], the Excreted in feces is reported as 13%, the “Excreted mostly unmetabolized in urine” value is on record as 87% and the Renal clearance entry was “approximately 388 mL/min”. Also, in series [6] (healthy subjects), the AUC dose dependence entry is “increases in an approximately dose‐dependent manner”. Besides, in series [4], the “Biopharmaceutical Classification System class” value is “class 1”.

The Tmax is the time from dosing to the highest level. As a reminder, the half-life is how long it takes for the measured level to halve. A higher half-life goes with slow decline.
